Here are results for 43 compounds from patent US8143259B2, “Cold menthol receptor antagonists” (Janssen Pharmaceutica, NV, priority 2008, dated 2012).

This assay addresses T1, canine TRPM8 (Canis lupus familiaris, UniProt Q1A7N1).
T1 construct: expressed in transfected cells
Kind of assay: In Vitro Canine TRPM8 Functional Assay (Ca2+ fluorescence, icilin activation). Format: cell-based. To be noted: for inhibition at 0.2 µM: HEK293, 0.2 μM compound; for inhibition at 0.5 µM: HEK293, 0.5 μM compound; for IC50: HEK293 cells stably expressing canine TRPM8, icilin activation, Ca2+ fluorescence; for % Inh @ 0.2 μM: 0.2 μM compound; for % Inh @ 0.5 μM: 0.5 μM compound. The protocol: The functional activity of compounds of the formula (I) was determined by measuring changes in intracellular calcium concentration using a Ca^2+-sensitive fluorescent dye. The changes in fluorescent signal were monitored by a fluorescence plate reader, either a FLIPR™ (Molecular Devices) or FDSS (Hamamatsu). Increases in intracellular Ca^2+ concentration were readily detected upon activation with icilin.
HEK293 cells stably expressing canine TRPM8 were routinely grown as monolayers in Dulbecco's minimum essential medium supplemented with 10% FBS, 2 mM L-glutamine, 100 units/mL penicillin, 100 ug/mL streptomycin and 400 μg/mL G418. Cells were maintained in 5% CO2 at 37° C. At 24 hrs prior to assay, cells were seeded in black wall, clear-base poly-D-lysine coated 384-well plates (BD Biosciences, NJ, USA) at a density of 5,000 cells per well in culture medium and grown overnight in 5% CO2 at 37° C. On assay day, growth media was removed and cells were loaded with Calcium 3 Dye (Molecular Devices) for 35 min at 37° C., under 5% CO2 and then for 25 min at room temperature and atmosphere. Subsequently, cells were tested for agonist-induced increases in intracellular Ca^2+ levels using FLIPR™ or FDSS. Cells were challenged with compounds of the formula (I) (at varying concentrations) and intracellular Ca^2+ was measured for 5 min prior to the addition of icilin to all wells to achieve a final concentration that produces approximately an 80% maximal response.
Maximal fluorescence intensity (FI) achieved upon addition of icilin was exported from the FLIPR or FDSS software and further analyzed using GraphPad Prism 3.02 (Graph Pad Software Inc., CA, U.S.A.). Basal FI was subtracted prior to normalizing data to percent of maximal response. Curves were generated using the average of quadruplicate wells for each data point, were analyzed using nonlinear regression of either sigmoidal dose response or sigmoidal dose response (variable slope).

The mark [1] stands for this setting: canine TRPM8 HEK293, icilin, 0.2 µM.

T1 sequence (Q1A7N1 1-1104): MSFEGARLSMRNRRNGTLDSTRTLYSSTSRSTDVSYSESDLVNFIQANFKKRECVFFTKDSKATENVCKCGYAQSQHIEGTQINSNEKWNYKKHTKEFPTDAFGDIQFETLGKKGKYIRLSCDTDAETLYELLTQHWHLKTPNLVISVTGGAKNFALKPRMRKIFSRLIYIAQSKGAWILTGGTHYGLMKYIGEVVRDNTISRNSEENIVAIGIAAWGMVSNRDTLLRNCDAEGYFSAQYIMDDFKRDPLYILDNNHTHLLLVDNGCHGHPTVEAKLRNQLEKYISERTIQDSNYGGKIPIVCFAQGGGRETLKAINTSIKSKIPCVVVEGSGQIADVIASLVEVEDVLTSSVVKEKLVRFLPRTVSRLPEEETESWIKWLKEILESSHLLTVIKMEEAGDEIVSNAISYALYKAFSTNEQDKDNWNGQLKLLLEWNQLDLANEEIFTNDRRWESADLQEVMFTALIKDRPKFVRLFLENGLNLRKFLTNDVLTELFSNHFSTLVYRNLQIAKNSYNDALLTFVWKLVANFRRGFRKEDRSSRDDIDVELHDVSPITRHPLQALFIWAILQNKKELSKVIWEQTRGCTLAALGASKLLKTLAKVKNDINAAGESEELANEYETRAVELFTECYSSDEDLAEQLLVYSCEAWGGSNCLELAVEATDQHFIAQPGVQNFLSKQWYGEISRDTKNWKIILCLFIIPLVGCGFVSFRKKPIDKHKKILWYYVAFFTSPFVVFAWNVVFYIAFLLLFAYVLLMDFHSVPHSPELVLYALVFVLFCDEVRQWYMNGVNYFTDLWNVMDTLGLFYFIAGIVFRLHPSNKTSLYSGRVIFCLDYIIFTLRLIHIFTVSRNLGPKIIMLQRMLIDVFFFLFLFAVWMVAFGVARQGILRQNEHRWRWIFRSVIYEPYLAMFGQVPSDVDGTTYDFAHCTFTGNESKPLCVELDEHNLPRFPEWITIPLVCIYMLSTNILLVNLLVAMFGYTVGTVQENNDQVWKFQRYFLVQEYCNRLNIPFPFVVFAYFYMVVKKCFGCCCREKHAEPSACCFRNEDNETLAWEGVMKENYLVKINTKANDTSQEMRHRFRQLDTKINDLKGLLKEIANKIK

Broadly, the inhibition is the change of the read-out against control, counted positive when it falls. In the case of `O=C(C(Nc1ccccc1)c1cccnc1)N1CCCC1c1ccccc1F` (centres unmarked) [Cpd 214, 1-[2-(2-Fluoro-phenyl)-pyrrolidin-1-yl]-2-phenylamino-2-pyridin-3-yl-ethanone], the inhibition at 0.2 µM (canine TRPM8 HEK293, icilin) is 58%.
As a reminder, the IC50 is the concentration that inhibits the measured activity by half. A high value points to a need for much substance. In turn, `O=C(C(Nc1cccc(F)c1F)c1ccc(Cl)cc1)N1CCCC1c1ccccc1F` (single isomer, unassigned) [Cpd 163] registered an IC50 of 145 nM. Also, the inhibition at 0.5 µM (canine TRPM8 HEK293, icilin) stood at 94%.
For `O=C(C(Nc1ccc(F)cc1F)c1ccc(Cl)cc1)N1CCCC1c1ccccc1` (centres unmarked) [Cpd 125], in that order: 62.3 nM and 96%.
`O=C(O)c1cccc(C2CCCN2C(=O)C(Nc2ccccc2F)c2ccc(C(F)(F)F)cc2)c1` (mixture of isomers) [Cpd 223] returned an IC50 of 40 nM. Further, the “% Inh @ 0.2 μM” value (canine TRPM8 HEK293, icilin) worked out at 97%.
`O=C(C(Nc1ccccc1F)c1cncc2ccccc12)N1CCCC1c1ccccc1F` (single isomer, unassigned) [Cpd 332]: the “% Inh @ 0.2 μM” value under setting [1] is on record as 47%.
With `O=C(C(Cc1ccccc1F)c1ccc(C(F)(F)F)cc1)N1CCCC1c1ccccc1F` (centres unmarked) [Cpd 201, 3-(2-Fluoro-phenyl)-1-[2-(2-fluoro-phenyl)-pyrrolidin-1-yl]-2-(4-trifluoromethyl-phenyl)-propan-1-one], the IC50 was found to be 32 nM. Also, the inhibition at 0.2 µM (canine TRPM8 HEK293, icilin) was 99%.
Consider `O=C(C(Nc1ccccc1F)c1ccc(Br)cc1)N1CCCC1c1ccccc1` (centres unmarked) [Cpd 91], for which the IC50 worked out at 14 nM. Moreover, where the note is “canine TRPM8 HEK293, icilin”, the inhibition at 0.5 µM worked out at 97%.
For the compound `COC(=O)C1CCC(c2ccccc2)N1C(=O)C(Nc1c(F)cccc1F)c1ccc(Br)cc1` (centres unmarked) [Cpd 210], the midpoint of inhibition, the IC50, lay at 7 nM. For the same compound, for the setting “canine TRPM8 HEK293, icilin”, the inhibition at 0.2 µM is 99%.
For `Cc1c(C(Cc2ccccc2F)C(=O)N2Cc3ccccc3C2)sc2ccccc12` (centres unmarked) [Cpd 179], in that order: 38 nM and 96%.
`O=C(C(Nc1ccc(F)cc1)c1ccc(Cl)cc1)N1CCCC1c1ccccc1F` (centres unmarked) [Cpd 117] gave an IC50 of 47.5 nM. Moreover, under “canine TRPM8 HEK293, icilin”, the inhibition at 0.5 µM amounted to 101%.
Turning to `COC(=O)C1CCC(c2ccccc2)N1C(=O)C(Nc1ccccc1F)c1ccc(Br)cc1` (centres unmarked) [Cpd 196], under setting [1], the “% Inh @ 0.2 μM” value came to 41%.
In turn, `O=C(O)c1ccc(C2CCCN2C(=O)C(Nc2ccccc2F)c2ccc(C(F)(F)F)cc2)cc1` (centres unmarked) [Cpd 222] registered an IC50 of 66 nM. The inhibition at 0.2 µM (canine TRPM8 HEK293, icilin) is 93%.
In the case of `O=C([C@@H](CNc1ccccc1)c1ccc(C(F)(F)F)cc1)N1CCC[C@@H]1c1ccccc1` (relative stereo) [Cpd 130, 3-Phenylamino-1-[(2RS*)2-phenyl-pyrrolidin-1-yl]-(2RS*)-2-(4-trifluoromethyl-phenyl)-propan-1-one], the midpoint of inhibition, the IC50, lay at 36.2 nM. Besides, the “% Inh @ 0.5 μM” value (canine TRPM8 HEK293, icilin) was 101%.
Regarding `O=C(C(Nc1ccccc1F)c1ccc(C(F)(F)F)cc1)N1CCCC1c1cccc(F)c1` (single isomer, unassigned) [Cpd 185], it took 150 nM to reach half-maximal inhibition (IC50). The inhibition at 0.2 µM (canine TRPM8 HEK293, icilin) is 82%.
As to `Cc1nc2ccc(C(Nc3ccccc3F)C(=O)N3CCCC3c3ccccc3F)cc2s1` (single isomer, unassigned) [Cpd 341], the IC50 came out at 24 nM. The “% Inh @ 0.2 μM” value under setting [1] is reported as 100%.
`O=C(C(Nc1ccccc1)c1cccnc1)N1Cc2ccccc2C1` (racemic) [Cpd 215]: the “% Inh @ 0.2 μM” value (canine TRPM8 HEK293, icilin) stood at 18%.
Take `COc1ccccc1C1CCCN1C(=O)C(Nc1cccc(F)c1F)c1ccc(Cl)cc1` (centres unmarked) [Cpd 167]: the IC50 was determined as 34 nM. Moreover, where the note is “canine TRPM8 HEK293, icilin”, the inhibition at 0.5 µM was 97%.
`O=C(C(Nc1ccc(F)cc1F)c1ccc(Cl)cc1)N1CCCC1c1ccccc1F` (centres unmarked) [Cpd 123] came in with an IC50 of 101 nM. In addition, for the setting “canine TRPM8 HEK293, icilin”, the inhibition at 0.5 µM was found to be 97%.
In turn, `COc1ccccc1C1CCCN1C(=O)C(Nc1ccccc1F)c1ccc(Cl)cc1` (centres unmarked) [Cpd 111] came in with an IC50 of 13 nM. Further, under “canine TRPM8 HEK293, icilin”, the inhibition at 0.5 µM was 96%.
Regarding `O=C(C(Nc1ccccc1)c1ccc(Cl)cc1)N1CCCC1c1ccccc1` (centres unmarked) [Cpd 86], the half-inhibitory concentration (IC50) is 15 nM. Besides, the inhibition at 0.5 µM (canine TRPM8 HEK293, icilin) was 97%.
On to `CN(C)c1ccc(C2CCCN2C(=O)C(Nc2ccccc2F)c2ccc(Br)cc2)cc1` (centres unmarked) [Cpd 271], for which half-maximal inhibition (IC50) was put at 89 nM. Also, the inhibition at 0.2 µM (canine TRPM8 HEK293, icilin) is 90%.
`O=C(C(Nc1ccccc1F)c1ccc(-n2ccnc2)cc1)N1CCCC1c1ccccc1Cl` (centres unmarked) [Cpd 342] gave an IC50 of 28 nM. The inhibition at 0.2 µM (canine TRPM8 HEK293, icilin) came out at 100%.
In the case of `O=C(O)c1cccc(-c2ccc(C(Nc3ccccc3F)C(=O)N3CCCC3c3ccccc3F)cc2)c1` (mixture of isomers) [Cpd 310], the “% Inh @ 0.2 μM” value (canine TRPM8 HEK293, icilin) worked out at 41%.
Take `O=C(C(Nc1ccc(F)cc1F)c1ccc(Cl)cc1)N1Cc2cccc(F)c2C1` (centres unmarked) [Cpd 127]: the IC50 is 86.9 nM. For the same compound, for the setting “canine TRPM8 HEK293, icilin”, the inhibition at 0.5 µM was found to be 97%.
For `O=C(C(Nc1ccccc1)c1ccc(Br)cc1)N1CCCC1c1ccccc1` (centres unmarked) [Cpd 70], half-maximal inhibition (IC50) required 23 nM. The inhibition at 0.5 µM (canine TRPM8 HEK293, icilin) came to 103%.
The like results for `COc1ccc(NC(C(=O)N2Cc3ccccc3C2)c2ccc(Cl)cc2)cc1` (centres unmarked) [Cpd 140] were, in that order, 131 nM and 97%.
Turning to `Cc1ccccc1NC(C(=O)N1CCc2ccccc21)c1ccc(C(F)(F)F)cc1` (centres unmarked) [Cpd 34, 1-(Indolin-1-yl)-2-(o-tolylamino)-2-(4-(trifluoromethyl)phenyl)-ethanone], the midpoint of inhibition, the IC50, lay at 161 nM. In addition, the inhibition at 0.5 µM (canine TRPM8 HEK293, icilin) came out at 102%.
Consider `CC(C)(C)c1ccc(C(Nc2ccccc2)C(=O)N2CCCC2c2ccccn2)cc1` (centres unmarked) [Cpd 54], for which the “% Inh @ 0.5 μM” value (canine TRPM8 HEK293, icilin, 0.5 µM) is listed as 69.055%.
`O=C(C(Nc1ccccc1)c1ccc(C(F)(F)F)cc1)N1CCCC1c1ccncc1` (centres unmarked) [Cpd 28] registered an IC50 of 91.7 nM. The inhibition at 0.5 µM (canine TRPM8 HEK293, icilin) was 103%.
`O=C(C(Nc1ccccc1F)c1ccc(-c2ccccn2)cc1)N1CCCC1c1ccccc1Cl` (single isomer, unassigned) [Cpd 339] showed a half-inhibitory concentration (IC50) of 27 nM. Further, the “% Inh @ 0.2 μM” value under setting [1] is 97%.
`O=C(C(Nc1ccccc1F)c1cc2ccccc2s1)N1Cc2cccnc2C1` (centres unmarked) [Cpd 370]: the IC50 came to 120 nM.
As to `O=C(C(Nc1ccccc1F)c1cc2ccccc2s1)N1CCCC1c1ccccc1F` (centres unmarked) [Cpd 225, 2-Benzo[b]thiophen-2-yl-2-(2-fluoro-phenylamino)-1-[2-(2-fluoro-phenyl)-pyrrolidin-1-yl]-ethanone], the IC50 amounted to 7 nM. Besides, the inhibition at 0.2 µM (canine TRPM8 HEK293, icilin) was 98%.
The like results for `COC(=O)c1ccc(C2CCCN2C(=O)C(Nc2ccccc2F)c2cc3ccccc3s2)cc1` (centres unmarked) [Cpd 325] were, in that order, 62 nM and 101%.
`O=C(C(Cc1ccccc1F)c1ccc(C(F)(F)F)cc1)N1Cc2ccccc2C1` (centres unmarked) [Cpd 200] yielded an IC50 of 55 nM. Under “canine TRPM8 HEK293, icilin”, the inhibition at 0.2 µM amounted to 89%.
As to `CC(C)(C)c1ccc(C(Nc2ccccc2)C(=O)N2CCCCC2c2ccccc2)cc1` (centres unmarked) [Cpd 11], it took 172 nM to reach half-maximal inhibition (IC50). For the same compound, the inhibition at 1 µM (HEK293, 1 μM compound, canine TRPM8 HEK293, icilin) was determined as 103%.
Turning to `O=C(O)c1ccc(-c2ccc(C(Nc3ccccc3F)C(=O)N3CCCC3c3ccccc3F)cc2)cc1` (centres unmarked) [Cpd 295, 4′-{1-(2-Fluoro-phenylamino)-2-[2-(2-fluoro-phenyl)-pyrrolidin-1-yl]-2-oxo-ethyl}-biphenyl-4-carboxylic acid], the half-inhibitory concentration (IC50) was 47 nM. Besides, under “canine TRPM8 HEK293, icilin”, the inhibition at 0.2 µM amounted to 90%.
`COC(=O)c1ccc(C2CCCN2C(=O)C(Nc2ccccc2F)c2ccc(-c3ccccn3)cc2)cc1` (centres unmarked) [Cpd 352]: the IC50 worked out at 115 nM. In addition, the inhibition at 0.2 µM (canine TRPM8 HEK293, icilin) came out at 88%.
`O=C(C(Nc1ccc(F)cc1)c1ccc(Cl)cc1)N1CCCC1c1ccccc1` (centres unmarked) [Cpd 119] yielded an IC50 of 69.7 nM. Further, under “canine TRPM8 HEK293, icilin”, the inhibition at 0.5 µM came to 100%.
For `O=C(C(Nc1ccccc1F)c1ccc(C(F)(F)F)cc1)N1CCCC1c1ccccc1` (racemic) [Cpd 69], in that order: 5 nM and 102%.
The like results for `O=C(C(Nc1ccccc1)c1ccc(Cl)cc1)N1CCc2ccccc2C1` (centres unmarked) [Cpd 88] were, in that order, 96 nM and 99%.
Consider `O=C(C(Nc1ccccc1F)c1ccc(N2CCCCC2)nc1)N1CCC[C@H]1c1ccccc1F` (mixture of isomers) [Cpd 334, 2-(2-Fluoro-phenylamino)-1-[(2S)-2-(2-fluoro-phenyl)-pyrrolidin-1-yl]-2-(3,4,5,6-tetrahydro-2H-[1,2′]bipyridinyl-5′-yl)-ethanone], for which 5 nM corresponded to half-maximal inhibition (IC50). Moreover, the inhibition at 0.2 µM (canine TRPM8 HEK293, icilin) came out at 101%.
As for `Cc1cccc(C)c1NC(C(=O)N1CCc2ccccc21)c1ccc(C(F)(F)F)cc1` (racemic) [Cpd 35], for the setting “canine TRPM8 HEK293, icilin”, the “% Inh @ 0.5 μM” value turned out to be 72.417%.
`O=C(C(Nc1ccccc1F)c1ccc2ncccc2c1)N1CCCC1c1ccccc1Cl` (single isomer, unassigned) [Cpd 315]: the “% Inh @ 0.2 μM” value (canine TRPM8 HEK293, icilin) stood at 49%.
